Columns and labels:
Assay type in all cases: functional
[1] = tested on: Epilachna; assay: Antifeedant activity against larvae of Epilachna paenulata in Cucurbita maxima leaves at 8 ug/cm2 after 24 hr by leaf disc choice test
[2] = tested on: Epilachna; assay: Antifeedant activity against larvae of Epilachna paenulata in Cucurbita maxima leaves at 4 ug/cm2 after 24 hr by leaf disc choice test
[3] = tested on: Spodoptera eridania; assay: Antifeedant activity against larvae of Spodoptera eridania in Cucurbita maxima leaves at 0.25 ug/cm2 after 24 hr by leaf disk choice test
[4] = tested on: Spodoptera eridania; assay: Antifeedant activity against larvae of Spodoptera eridania in Cucurbita maxima leaves at 0.5 ug/cm2 after 24 hr by leaf disk choice test
[5] = tested on: Spodoptera eridania; assay: Antifeedant activity against larvae of Spodoptera eridania in Cucurbita maxima leaves at 14 ug/cm2 after 24 hr by leaf disk choice test
[6] = tested on: Epilachna; assay: Antifeedant activity against larvae of Epilachna paenulata in Cucurbita maxima leaves at 10 ug/cm2 after 24 hr by leaf disc choice test
[7] = tested on: Spodoptera eridania; assay: Antifeedant activity against larvae of Spodoptera eridania in Cucurbita maxima leaves at 10 ug/cm2 after 24 hr by leaf disk choice test
[8] = tested on: Spodoptera eridania; assay: Antifeedant activity against larvae of Spodoptera eridania in Cucurbita maxima leaves at 4 ug/cm2 after 24 hr by leaf disk choice test
[9] = tested on: Spodoptera eridania; assay: Antifeedant activity against larvae of Spodoptera eridania in Cucurbita maxima leaves at 1 ug/cm2 after 24 hr by leaf disk choice test
[10] = tested on: Epilachna; assay: Antifeedant activity against larvae of Epilachna paenulata in Cucurbita maxima leaves at 1 ug/cm2 after 24 hr by leaf disc choice test
[11] = tested on: Epilachna; assay: Antifeedant activity against larvae of Epilachna paenulata in Cucurbita maxima leaves at 0.5 ug/cm2 after 24 hr by leaf disc choice test

Row | SMILES | AFI [1] [%] | AFI [2] [%] | AFI [3] [%] | AFI [4] [%] | AFI [5] [%] | AFI [6] [%] | AFI [7] [%] | AFI [8] [%] | AFI [9] [%] | AFI [10] [%] | AFI [11] [%]
1 | CC(=O)O[C@@H]1C[C@H](O)[C@@]23CO[C@@H](O)[C@]1(C)[C@@H]2C[C@@H](O)[C@]1(C)[C@@H]3C(=O)[C@H](OC(C)=O)[C@@]2(C)[C@H](c3ccoc3)C[C@H]3O[C@]321 [TOOSENDANIN] | 78.2 | 54.8 | 45.8 | 58.7 | 87.8 | 90.7 | 79.3 | 71.8 | 65.1 |  | 
2 | C/C=C(\C)C(=O)O[C@H]1C[C@@H](OC(C)=O)[C@@]2(C(=O)OC)CO[C@H]3[C@@H](O)[C@@](C)([C@]45O[C@@]4(C)[C@@H]4C[C@H]5O[C@@H]5OC=C[C@@]54O)[C@H]4[C@]1(CO[C@]4(O)C(=O)OC)[C@@H]32 [AZADIRACHTIN A] |  | 97.6 | 57.3 | 91.2 |  |  |  | 94 | 94.2 | 62.2 | 35.7
3 | CC(=O)O[C@@H]1C[C@H](O)[C@@]23CO[C@H](O)[C@]1(C)[C@@H]2C[C@@H](O)[C@]1(C)[C@@H]3C(=O)[C@H](O)[C@@]2(C)[C@H](c3ccoc3)C[C@H]3O[C@@]321 [12-HYDROXYAMOORASTATIN] |  | 96.1 | 35.5 | 57.5 |  |  |  | 95.5 | 91.2 | 52.1 | 36.4

— ChEMBL document CHEMBL3045819, “Potent limonoid insect antifeedant from Melia azedarach” (2002)
